Data as given in patent publication US9714249B2 (Novartis AG, priority 2013, dated 2017).

Assays:
BRD3 (His-Brd3(20-477)) = BRD3 (His-Brd3(20-477)) (Homo sapiens (Human), UniProt Q15059); assay: TR-FRET in-vitro binding assay for BRD3; conditions: acetyl-histone H4 peptide
Method: (§1) All assays were performed in 384 well microtiter plates. Each assay plate contained 8-point serial dilutions for 40 test compounds, plus 16 high- and 16 low controls. Liquid handling and incubation steps were done on an Innovadyne Nanodrop Express equipped with a robotic arm (Thermo CatX, Perkin Elmer/Caliper Twister II) and an incubator (Liconic STX40, Thermo Cytomat 2C450). The assay plates were prepared by addition of 50 nl per well of compound solution in 90% DMSO HummingBird nanodispenser (Zinsser Analytic). The assay was started by stepwise addition of 4.5 μl per well of bromo domain protein (50 mM HEPES, pH 7.5, 0.005% Tween20, 0.1% BSA, 50 mM NaCl, 45 nM His-Brd2(60-472) or 45 nM His-Brd3(20-477) or 45 nM His-Brd4(44-477) all proteins produced in-house) and 4.5 μl per well of peptide solution (50 mM HEPES, pH 7.5, 0.005% Tween20, 0.1% BSA, 50 mM NaCl, 60 nM acetyl-histone H4 (AcK 5, 8, 12, 16) (Biosyntan GmbH)). Reactions were incubated at 30° C. for 35 minutes. Subsequently 4.5 μl per well detection mix (50 mM HEPES, pH 7.5, 0.005% Tween20, 0.1% BSA, 50 mM NaCl, 3 nM Eu-labeled anti-His6 antibody, 21 nM streptavidin-allophycocyanin) were added. After 35 minutes incubation at 30° C., plates were measured in a Perkin Elmer EnVision multilabel reader. Concentrations causing 50% inhibition (1050) values were determined from percent inhibition values at different compound concentrations by non-linear regression analysis.
(§2) Test compounds were dissolved in DMSO (10 mM) and transferred into 1.4 mL flat bottom or V-shaped Matrix tubes carrying a unique 2D matrix. The stock solutions were stored at […] if not used immediately. For the test procedure the vials were defrosted and identified by a scanner whereby a working sheet was generated that guided the subsequent working steps. Compound dilutions were made in 96 well plates. This format enabled the assay of maximally 40 individual test compounds at 8 concentrations (single points) including 4 reference compounds, if desired (known BET inhibitors from the prior art, for this and other assays of the type disclosed herein). The dilution protocol included the production of “pre-dilution plates”, “master plates” and “assay plates”.
(§3) Pre-dilution plates: 96 polypropylene well plates were used as pre-dilution plates. A total of 4 pre-dilution plates were prepared including 10 test compounds each on the plate positions A1-A10, one standard compound at A11 and one DMSO control at A12. All dilution steps were done on a HamiltonSTAR robot. Master plates: 30 μL of individual compound dilutions including standard compound and controls of the 4 “pre-dilution plates” were transferred into a 384 “master plate” including the following concentrations 10000, 3003, 1000, 300, 100, 30, 10 and 3 μM, respectively in 90% of DMSO. Assay plates: Identical “assay plates” were then prepared by pipetting 50 nL each of compound dilutions of the “master plates” into 384-well “assay plates” by means of a HummingBird 384-channel dispenser. These plates were used directly for the assay which was performed in a total volume of 13.55 μL. This led to a final compound concentration of 37, 11, 3.7, 1.1, 0.37, 0.11, 0.037 and 0.011 μM and a final DMSO concentration of 0.37% in the assay. Cell Growth Inhibition Assay

[1] = target: CREBBP bromodomain (His-CREBBP (1081-1197)) (Homo sapiens (Human), UniProt Q92793); assay: AlphaScreen in-vitro binding assay for CREBBP; conditions: acetyl-histone H4 peptide
Method: In order to assess bromodomain selectivity, we set up a binding assay using the bromodomain encoded by the CREBBP gene. […] Reactions were incubated at 30° C. for 35 minutes. Subsequently 4.5 μl per well detection mix (50 mM HEPES, pH 7.5, 0.005% Tween20, 0.02% BSA, 150 mM NaCl, 45 μg/ml Ni-chelate acceptor beads, 45 μg/ml streptavidin-donor beads) (Perkin Elmer)) were added. After 60 minutes incubation at room temperature, plates were measured in a Perkin Elmer EnVision multilabel reader. IC50 values were determined from percent inhibition values at different compound concentrations by non-linear regression analysis.
as §2
Pre-dilution plates: 96 polypropylene well plates were used as pre-dilution plates. A total of 4 pre-dilution plates were prepared including 10 test compounds each on the plate positions A1-A10, one standard compound at A11 and one DMSO control at A12. All dilution steps were done on a HamiltonSTAR robot. […] These plates were used directly for the assay which was performed in a total volume of 13.55 μL. […] Cell Growth Inhibition Assay

MV-4-11 cells = assay: Cell growth inhibition assay (CellTiter-Glo), MV-4-11; type: cell-based, human; conditions: MV-4-11, 4 days; for GI50: Homo sapiens, MV4-11, 96 h, half-maximal growth inhibition; for MV-4-11 TGI: total growth inhibition
Method: (§4) The human leukemia cell lines MV-4-11, THP-1 and K-562 were employed to characterize the effect of BET inhibitors on cellular proliferation and viability. Cells were obtained from the American Type Culture Collection (ATCC) and cultured at 37° C. in a humidified 5% CO2 incubator in the following media: MV-4-11: DMEM high glucose (Animed #1-26F01-I), 10% FCS (Animed #2-01F26-I), 4 mM L-Glutamine (Animed #5-10K50), 1 mM Sodium Pyruvate (Animed # G03625P), 1× Penicillin-Streptomycin (Animed # F12478P); K-562: Iscove's MEM (Animed #1-28F16-I), 10% FCS (Animed #2-01F26-I), 4 mM L-Glutamine (Animed #5-10K50), 1× Penicillin-Streptomycin (Animed # F12478P); THP-1: RPMI-1640 (Animed #1-41F01-I), 10% FCS (Animed #2-01F26-I), 2 mM L-Glutamine (Animed #5-10K50), 10 mM HEPES (Animed #5-31F100), 1 mM Sodium Pyruvate (Animed # G03625P), 1× Penicillin-Streptomycin (Animed # F12478P). The AML lines MV-4-11 and THP-1 are very sensitive to BET inhibitors and show massive cell death upon BET inhibition (Zuber et al., Nature, 478 (2011), 524-8). Compound-mediated suppression of cell proliferation/viability was assessed by quantification of cellular ATP levels using the CellTiter-Glo (CTG) reagent (Promega). Briefly, cells were seeded in 20 μl fresh medium into 384-well plates, followed by addition of 5 μl medium containing compound dilutions at 5-fold their final intended concentration. Dose-response effects were assessed by 3-fold serial dilutions of the test compound, starting at 10 μM. Following incubation of the cells for 4 days at 37° C. and 5% CO2, the effect of inhibitors on cell viability was quantified following addition of 20 μl CTG and luminescence quantification (integration time: 100 ms) as per vendor manual, using a correspondingly equipped Tecan M200 multi-mode platereader (TECAN, Switzerland). For data analysis, the assay background value determined in wells containing medium, but no cells, was subtracted from all data points. To enable differentiation of cytotoxic from cytostatic compounds, the number of viable cells is assessed relative to that observed at the time of compound addition using a separate cell plate (day 0). The effect of a particular test compound concentration on cell proliferation/viability is expressed as percentage of the background- and day 0-corrected luminescence reading obtained for cells treated with vehicle only (DMSO, 0.1% final concentration), which is set as 100%, whereas that luminescence reading for wells containing medium is set as −100%. Compound concentrations leading to half-maximal (1050) and total growth inhibition (TGI) were determined using standard four parameter curve fitting.

THP-1 cells = assay: Cell growth inhibition assay (CellTiter-Glo), THP-1; type: cell-based, human; conditions: THP-1, 4 days; for GI50: Homo sapiens, 96 h, half-maximal growth inhibition; for THP-1 TGI: total growth inhibition
Method: as §4

K-562 cells = assay: Cell growth inhibition assay (CellTiter-Glo), K-562; type: cell-based, human; conditions: K-562, 4 days; for GI50: Homo sapiens, K562, 96 h, half-maximal growth inhibition; for K-562 TGI: total growth inhibition
Method: as §4

BRD4-NUT-fusion = BRD4-NUT-fusion (Homo sapiens (Human), UniProt O60885+Q86Y26); assay: Nut-foci formation assay (HCS) in HCC2494 NUT midline carcinoma cells; type: cell-based; conditions: 24 hours, nuclear BRD4-NUT foci, immunofluorescence
Method: Compound-mediated inhibition of BRD4 activity was monitored by quantification of the number and intensity of nuclear BRD4-NUT foci using automated immunofluorescence microscopy. Briefly, 5000 cells in 20 μl fresh medium were seeded into Poly-D-Lysine-precoated 384-well plates and incubated overnight at 37° C. and 5% CO2, followed by addition of 5 μl medium containing compound dilutions at 5-fold their final intended concentration. Dose-response effects were assessed by 3-fold serial dilutions of the test compound, starting at 10 μM. […] Assay plates were imaged using the appropriate filter sets on the Cellomics VTi automated fluorescence microscopy platform (ThermoFisher Scientific) and the population average of the number of NUT-foci per nucleus is quantified using the Cellomics Spot Detection BioApplication image analysis algorithm (ThermoFisher Scientific). The effect of a particular test compound concentration on NUT-foci number and intensity is expressed as percentage of the value obtained for cells treated with vehicle only (DMSO, 0.1% final concentration), which was set as 100.

BRD2 (His-Brd2(60-472)) = BRD2 (His-Brd2(60-472)) (Homo sapiens (Human), UniProt P25440); assay: TR-FRET in-vitro binding assay for BRD2; conditions: acetyl-histone H4 peptide
Method: as §1, §2, §3

Sequence of BRD3 (His-Brd3(20-477)) (Q15059 20-477, species assumed): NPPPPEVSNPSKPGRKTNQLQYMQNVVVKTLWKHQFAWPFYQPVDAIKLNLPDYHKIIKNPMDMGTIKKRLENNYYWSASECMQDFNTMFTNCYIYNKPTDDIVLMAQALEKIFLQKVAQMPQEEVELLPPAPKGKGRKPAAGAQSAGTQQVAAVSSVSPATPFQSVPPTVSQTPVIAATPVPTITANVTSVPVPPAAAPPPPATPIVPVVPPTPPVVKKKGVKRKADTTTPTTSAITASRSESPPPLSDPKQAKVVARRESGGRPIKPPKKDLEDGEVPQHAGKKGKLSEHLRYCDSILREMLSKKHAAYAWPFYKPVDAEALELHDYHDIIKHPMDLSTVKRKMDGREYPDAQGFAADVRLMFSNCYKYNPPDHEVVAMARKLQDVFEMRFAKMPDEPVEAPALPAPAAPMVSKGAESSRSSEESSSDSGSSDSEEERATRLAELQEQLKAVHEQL
Sequence of CREBBP bromodomain (His-CREBBP (1081-1197)) (Q92793 1081-1197): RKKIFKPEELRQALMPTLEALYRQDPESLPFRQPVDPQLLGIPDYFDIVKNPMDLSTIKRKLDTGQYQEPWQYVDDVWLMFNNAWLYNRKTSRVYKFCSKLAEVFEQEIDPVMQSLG
Sequence of BRD2 (His-Brd2(60-472)) (P25440 60-472, species assumed): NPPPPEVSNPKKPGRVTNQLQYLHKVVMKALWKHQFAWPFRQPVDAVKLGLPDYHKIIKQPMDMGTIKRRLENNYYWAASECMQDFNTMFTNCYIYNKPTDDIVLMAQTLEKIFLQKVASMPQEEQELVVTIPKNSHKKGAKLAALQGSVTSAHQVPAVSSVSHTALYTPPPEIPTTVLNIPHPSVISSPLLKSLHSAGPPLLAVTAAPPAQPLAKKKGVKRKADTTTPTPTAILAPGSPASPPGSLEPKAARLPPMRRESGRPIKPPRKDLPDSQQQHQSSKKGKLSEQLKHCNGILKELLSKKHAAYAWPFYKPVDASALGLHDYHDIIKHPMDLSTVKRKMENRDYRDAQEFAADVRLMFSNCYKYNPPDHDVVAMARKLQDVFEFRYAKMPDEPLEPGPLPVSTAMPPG

Structure (SMILES)	IC50 (BRD3 (His-Brd3(20-477)))	IC50 [1]	GI50 (MV-4-11 cells)	MV-4-11 TGI (MV-4-11 cells)	GI50 (THP-1 cells)	THP-1 TGI (THP-1 cells)	GI50 (K-562 cells)	K-562 TGI (K-562 cells)	IC50 (BRD4-NUT-fusion)	IC50 (BRD2 (His-Brd2(60-472)))
Cc1[nH]nc2c1C(=O)N(c1cc(C)c(=O)n(C)c1)[C@@H]2c1ccc(Cl)cc1 [Example 27, (R)-6-(4-chlorophenyl)-5-(1,5-dimethyl-6-oxo-1,6-dihydropyridin-3-yl)-3-methyl-5,6-dihydropyrrolo[3,4-c]pyrazol-4(2H)-one]	27 nM	1200 nM	27.1 nM	49.6 nM	56.2 nM	115 nM	112 nM	>10000 nM		
CCOc1ncccc1-n1nc(C)c2c1C(c1ccc(Cl)cc1)N(c1cc(C)c(=O)n(C)c1)C2=O (stereo not drawn) [Example 18a, 6-(4-chlorophenyl)-5-(1,5-dimethyl-6-oxo-1,6-dihydropyridin-3-yl)-1-(2-ethoxypyridin-3-yl)-3-methyl-5,6-dihydropyrrolo[3,4-c]pyrazol-4(1H)-one]			89.3 nM	101 nM	89.6 nM	175 nM	574 nM	>10000 nM	66.6 nM	
COc1ncccc1-n1nc(C)c2c1C(c1ccc(Cl)cc1)N(c1cc(C)c(=O)n(C)c1)C2=O (stereo not drawn) [Example 17a, 6-(4-chlorophenyl)-5-(1,5-dimethyl-6-oxo-1,6-dihydropyridin-3-yl)-1-(2-methoxypyridin-3-yl)-3-methyl-5,6-dihydropyrrolo[3,4-c]pyrazol-4(1H)-one]			58.1 nM	87.9 nM	102 nM	175 nM	293 nM	>10000 nM	56.1 nM	
Cc1[nH]nc2c1C(=O)N(c1cc(C)c(=O)n(C)c1)C2c1ccc(Cl)cc1 (stereo not drawn) [Example 9, 6-(4-chlorophenyl)-5-(1,5-dimethyl-6-oxo-1,6-dihydropyridin-3-yl)-3-methyl-5,6-dihydropyrrolo[3,4-c]pyrazol-4(2H)-one]	67 nM	3000 nM	51 nM	72.1 nM	88.5 nM	206 nM	322 nM	>10000 nM		
Cc1cc(N2C(=O)c3c(C4CC4)n[nH]c3C2c2ccc(Cl)cc2)cn(C)c1=O (stereo not drawn) [Example 23, 6-(4-chlorophenyl)-3-cyclopropyl-5-(1,5-dimethyl-6-oxo-1,6-dihydropyridin-3-yl)-5,6-dihydropyrrolo[3,4-c]pyrazol-4(1H)-one]	49 nM	3300 nM	25.6 nM	48 nM	59.4 nM	128.5 nM	170 nM	>10000 nM		52 nM
